Measurements as given in PubChem BioAssay AID248 (DTP/NCI, 2004).
Where “and” joins values, the source holds several entries; their conditions need not be identical. Identical values can stand only once. Inconclusive results and toxic doses are left out. Cut-off read from the data, not from the text of the source: active = T/C of 150% or more; inactive = T/C below 125%.

Test system: L1210 leukemia ip in BDF1 mice, survival T/C
Experiment: NCI In Vivo Anticancer Drug Screen. Data for tumor model L1210 Leukemia (intraperitoneal) in B6D2F1 (BDF1) mice
Conditions: endpoint: mean survival time, higher = longer survival
Summary of the method: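 Antitumor effect is assessed in tumor-bearing animals. Survival in the compound arm is compared with a vehicle-dosed control arm and expressed as their quotient.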

[1] = dose: 100.0 mg/kg/injection, schedule: Q01DX001 (ip), vehicle: saline
[2] = dose: 100.0 mg/kg/injection, schedule: Q01DX009 (ip), vehicle: saline
[3] = dose: 100.0 mg/kg/injection, schedule: Q04DX003 (ip), vehicle: saline
[4] = dose: 200.0 mg/kg/injection, schedule: Q01DX001 (ip), vehicle: saline
[5] = dose: 200.0 mg/kg/injection, schedule: Q01DX009 (ip), vehicle: saline
[6] = dose: 200.0 mg/kg/injection, schedule: Q04DX003 (ip), vehicle: saline
[7] = dose: 400.0 mg/kg/injection, schedule: Q01DX001 (ip), vehicle: saline
[8] = dose: 400.0 mg/kg/injection, schedule: Q01DX009 (ip), vehicle: saline
[9] = dose: 400.0 mg/kg/injection, schedule: Q04DX003 (ip), vehicle: saline
[10] = dose: 100.0 mg/kg/injection, schedule: Q04DX003 (ip), vehicle: saline with Tween-80
[11] = dose: 200.0 mg/kg/injection, schedule: Q04DX003 (ip), vehicle: saline with Tween-80
[12] = dose: 400.0 mg/kg/injection, schedule: Q04DX003 (ip), vehicle: saline with Tween-80
[13] = dose: 50.0 mg/kg/injection, schedule: Q01DX009 (ip), vehicle: saline
[14] = dose: 100.0 mg/kg/injection, schedule: Q01DX001 (ip), vehicle: Klucel (hydroxypropylcellulose) (HPC)
[15] = dose: 100.0 mg/kg/injection, schedule: Q04DX003 (ip), vehicle: Klucel (hydroxypropylcellulose) (HPC)
[16] = dose: 200.0 mg/kg/injection, schedule: Q01DX001 (ip), vehicle: Klucel (hydroxypropylcellulose) (HPC)
[17] = dose: 200.0 mg/kg/injection, schedule: Q04DX003 (ip), vehicle: Klucel (hydroxypropylcellulose) (HPC)
[18] = dose: 400.0 mg/kg/injection, schedule: Q04DX003 (ip), vehicle: Klucel (hydroxypropylcellulose) (HPC)

Measured: T/C

O=C(c1ccccn1)N1CCOCC1
inactive: [1] 101 % of control | [2] 98 % of control and 109 % of control | dose: 100.0 mg/kg/injection, schedule: Q04DX002 (ip), vehicle: saline 96 % of control and 116 % of control | [3] 98 % of control | [4] 105 % of control | [5] 103 % of control and 104 % of control | dose: 200.0 mg/kg/injection, schedule: Q04DX002 (ip), vehicle: saline 95 % of control and 97 % of control | [6] 98 % of control | [7] 97 % of control | [8] 95 % of control and 103 % of control | dose: 400.0 mg/kg/injection, schedule: Q04DX002 (ip), vehicle: saline 96 % of control and 103 % of control | [9] 107 % of control

Nc1nc(N)c2[nH]cnc2n1 (tested in a mixture with another compound)
inactive: dose: 100.0 mg/kg/injection, schedule: Q01DX001 (ip), vehicle: carboxymethylcellulose (CMC) 93 % of control | dose: 200.0 mg/kg/injection, schedule: Q01DX001 (ip), vehicle: carboxymethylcellulose (CMC) 89 % of control | dose: 400.0 mg/kg/injection, schedule: Q01DX001 (ip), vehicle: carboxymethylcellulose (CMC) 94 % of control

CC1CCCCC12OCCO2 (stereo unspecified)
inactive: dose: 100.0 mg/kg/injection, schedule: Q01DX009 (ip), vehicle: saline with Tween-80 97 % of control | [10] 101 % of control | dose: 200.0 mg/kg/injection, schedule: Q01DX009 (ip), vehicle: saline with Tween-80 91 % of control | [11] 93 % of control | [12] 97 % of control

O/N=c1/cc(-c2cccs2)ss1
inactive: [13] 86 % of control | [2] 86 % of control | [3] 87 % of control | [5] 98 % of control | [6] 95 % of control | [9] 95 % of control

CCN1C(=S)N(C)C(=O)/C1=C\N(C(C)=O)c1ccccc1
inactive: dose: 50.0 mg/kg/injection, schedule: Q04DX003 (ip), vehicle: Klucel (hydroxypropylcellulose) (HPC) 103 % of control | [14] 104 % of control | [15] 112 % of control | [16] 104 % of control | [17] 100 % of control | dose: 400.0 mg/kg/injection, schedule: Q01DX001 (ip), vehicle: Klucel (hydroxypropylcellulose) (HPC) 102 % of control

CCOC(=O)C(O)(CC)c1cc[n+](Cc2cc3ccccc3nc2Cl)cc1C (stereo unspecified)
inactive: dose: 50.0 mg/kg/injection, schedule: Q01DX001 (ip), vehicle: saline 115 % of control | [1] 94 % of control

CC(C)(CO)N=Cc1ccccc1Br
inactive: [1] 110 % of control | [4] 98 % of control | [7] 90 % of control

O=S(=O)(F)c1ccc(-c2cc(Cl)c3c(Br)cc(Br)cc3n2)cc1
inactive: [15] 100 % of control | [17] 94 % of control | [18] 102 % of control

COc1cc(/C=N/NC(=O)c2cccnc2)cc(OC)c1OC
inactive: [2] 102 % of control | [5] 107 % of control | [8] 103 % of control

CCC1(O)C(=O)OCc2c1cc(-c1ccccc1)n(C)c2=O (stereo unspecified)
inactive: dose: 25.0 mg/kg/injection, schedule: Q01DX001 (ip), vehicle: other 101 % of control | dose: 50.0 mg/kg/injection, schedule: Q01DX001 (ip), vehicle: other 113 % of control | dose: 100.0 mg/kg/injection, schedule: Q01DX001 (ip), vehicle: other 101 % of control | dose: 200.0 mg/kg/injection, schedule: Q01DX001 (ip), vehicle: other 98 % of control

O=[N+]([O-])c1cc([N+](=O)[O-])c2ccc(S(=O)(=O)O)cc2c1O
inactive: dose: 20.0 mg/kg/injection, schedule: Q01DX009 (ip), vehicle: Klucel (hydroxypropylcellulose) (HPC) 97 % of control | dose: 20.0 mg/kg/injection, schedule: Q04DX003 (ip), vehicle: Klucel (hydroxypropylcellulose) (HPC) 110 % of control | dose: 40.0 mg/kg/injection, schedule: Q01DX009 (ip), vehicle: Klucel (hydroxypropylcellulose) (HPC) 100 % of control | dose: 40.0 mg/kg/injection, schedule: Q04DX003 (ip), vehicle: Klucel (hydroxypropylcellulose) (HPC) 109 % of control | dose: 80.0 mg/kg/injection, schedule: Q01DX009 (ip), vehicle: Klucel (hydroxypropylcellulose) (HPC) 103 % of control | dose: 80.0 mg/kg/injection, schedule: Q04DX003 (ip), vehicle: Klucel (hydroxypropylcellulose) (HPC) 105 % of control | [15] 106 % of control

COc1ccc(Oc2cc(CC3c4cc(OC)c(OC)cc4CCN3C)c([N+](=O)[O-])cc2OC)cc1OC (stereo unspecified)
inactive: dose: 12.5 mg/kg/injection, schedule: Q01DX009 (ip), vehicle: saline 93 % of control | dose: 25.0 mg/kg/injection, schedule: Q01DX009 (ip), vehicle: saline 102 % of control | [13] 96 % of control | [2] 108 % of control

O=c1[nH]c(=S)c2ncn(C3OC(CO)C(O)C3O)c2[nH]1 (stereo unspecified)
inactive: [1] 107 % of control | [4] 101 % of control | [7] 104 % of control

O=C(Nc1ccccc1F)Nc1ccc(Cl)cc1Cl
inactive: [2] 100 % of control | [5] 100 % of control | [8] 98 % of control

CCCCCC(=O)N(CC)C(=NCC)c1ccc(NC(=O)c2ccc(C(=O)Nc3ccc(C(=NCC)N(CC)C(=O)CCCCC)cc3)cc2)cc1
inactive: dose: 3.12 mg/kg/injection, schedule: Q01DX015 (ip), vehicle: methylcellulose (MC) 100 % of control | dose: 6.25 mg/kg/injection, schedule: Q01DX015 (ip), vehicle: methylcellulose (MC) 102 % of control | dose: 12.5 mg/kg/injection, schedule: Q01DX015 (ip), vehicle: methylcellulose (MC) 94 % of control | dose: 25.0 mg/kg/injection, schedule: Q01DX015 (ip), vehicle: methylcellulose (MC) 88 % of control | dose: 50.0 mg/kg/injection, schedule: Q01DX015 (ip), vehicle: methylcellulose (MC) 100 % of control | dose: 100.0 mg/kg/injection, schedule: Q01DX015 (ip), vehicle: methylcellulose (MC) 100 % of control | dose: 200.0 mg/kg/injection, schedule: Q01DX015 (ip), vehicle: methylcellulose (MC) 90 % of control | dose: 400.0 mg/kg/injection, schedule: Q01DX015 (ip), vehicle: methylcellulose (MC) 90 % of control

CCCCCCCCCCCCNC(=S)NCCCCCCCCCCCC
inactive: [15] 92 % of control | [17] 92 % of control | [18] 89 % of control

C#CCC(B1OCCO1)B1OCCO1
inactive: dose: 50.0 mg/kg/injection, schedule: Q01DX001 (ip), vehicle: Klucel (hydroxypropylcellulose) (HPC) 97 % of control | [14] 90 % of control | [16] 100 % of control

C/C(=C\C(=N\NC(=N)N)c1ccccc1)c1ccccc1
inactive: dose: 1.87 mg/kg/injection, schedule: Q01DX Z (ip), vehicle: carboxymethylcellulose (CMC) 94 % of control | dose: 3.75 mg/kg/injection, schedule: Q01DX Z (ip), vehicle: carboxymethylcellulose (CMC) 97 % of control | dose: 7.5 mg/kg/injection, schedule: Q01DX Z (ip), vehicle: carboxymethylcellulose (CMC) 88 % of control | dose: 7.5 mg/kg/injection, schedule: Q01DX Z (oral), vehicle: carboxymethylcellulose (CMC) 108 % of control | dose: 15.0 mg/kg/injection, schedule: Q01DX Z (ip), vehicle: carboxymethylcellulose (CMC) 98 % of control | dose: 15.0 mg/kg/injection, schedule: Q01DX Z (oral), vehicle: carboxymethylcellulose (CMC) 106 % of control | dose: 30.0 mg/kg/injection, schedule: Q01DX Z (oral), vehicle: carboxymethylcellulose (CMC) 100 % of control | dose: 60.0 mg/kg/injection, schedule: Q01DX Z (oral), vehicle: carboxymethylcellulose (CMC) 108 % of control

CCCCCC[Si](Cl)(Cl)Cl
inactive: dose: 75.0 mg/kg/injection, schedule: Q01DX001 (ip), vehicle: saline 101 % of control | dose: 150.0 mg/kg/injection, schedule: Q01DX001 (ip), vehicle: saline 91 % of control

Cc1ccc(NCc2nc(N)nc(Nc3ccccc3)n2)cc1
inactive: [10] 97 % of control | [11] 92 % of control | [12] 93 % of control

O=C(O)c1c(Br)c(Br)c(Br)c(Br)c1C(=O)Nc1ccccc1F
inactive: dose: 100.0 mg/kg/injection, schedule: Q01DX009 (ip), vehicle: Klucel (hydroxypropylcellulose) (HPC) 93 % of control | dose: 200.0 mg/kg/injection, schedule: Q01DX009 (ip), vehicle: Klucel (hydroxypropylcellulose) (HPC) 96 % of control

N#C/C(=C\c1cc(Cl)cc(Cl)c1O)c1ccc([N+](=O)[O-])cc1
inactive: [10] 90 % of control | [11] 92 % of control

OCc1nc2nc(Cl)c(Cl)nc2[nH]1
inactive: [13] 93 % of control | [2] 98 % of control | [3] 107 % of control | [5] 95 % of control | [6] 98 % of control | [9] 96 % of control
